Experimental findings from ChEMBL document CHEMBL3507680, “University of Dundee, Gates Library screen for HepG2 cell viability” are described below.

The structures appear in SMILES notation.

This data set is described as follows: Human HepG2 cell viability assay in 384 well format. The format is toxicity, cell-based. Details: dose 125 nL, time 70.5 hour; concentration not given beside the values. To be noted: HepG2 cells, read-out: Inhibition.
Consider `O=C(c1ccc(C(F)(F)F)cc1)C1CCCN(C(=O)Cn2cnnn2)C1` (stereo not given), for which the cytotoxicity at 70.5 h is -15.3%.
Consider `CN(Cc1cncnc1)[C@H]1CN(C(=O)c2ccc[nH]2)[C@@H]2CCCO[C@@H]21`, for which the cytotoxicity at 70.5 h was -8.37%.
The same measure for `CS(=O)(=O)NC[C@]12COC[C@H]1CN(C(=O)C1CC=CC1)C2`: -3.37%; for `CNC(=O)[C@@H]1C[C@@H]2CCN(Cc3ccoc3)C[C@H]2O1`: -6.85%.
The same measure for `O=C(c1cscn1)N1CC[C@H]2C[C@H](c3nnc(C4CC4)o3)O[C@@H]2C1`: -10.6%; for `CCOCCn1c(=O)[nH]c2cc(C(=O)N(C)Cc3cnn(C)c3)ccc21`: -4.48%; for `CSc1nccc(N2CCC3(CCCN(Cc4ccc(F)cc4)C3)C2)n1` (stereo not given): -3.25%.
The same measure for `CNc1nc(C(=O)N2CCCC(COc3ccc(F)cc3)C2)cs1` (stereo not given): 3.44%; for `O=C(c1onc2ccccc12)N1CCC2(CCCNC2)C1` (stereo not given): -16.6%; for `CN(Cc1csc(-c2cccs2)n1)Cc1cccnc1N`: -14.6%.
`COCCN(Cc1ccc(C)cc1)CC1CCOC1` (stereo not given): the cytotoxicity at 70.5 h was -5.9%.
The same measure for `CCn1cnnc1CN(C)Cc1nc(-c2cc(OC)ccc2F)oc1C`: -6.85%.
In the case of `CCCn1nc(C)c2c1NC(=O)CC2c1ccc(CN2CCCC2)s1` (stereo not given) it was -9.08%; in that of `CCc1cnc(C)nc1NCCSc1nnc(C)n1CC`, 0.501%.
The same measure for `Cn1c(Cn2ccnc2)nnc1C1CCCN(Cc2ccncc2)C1` (stereo not given): 14%; for `CCC(NC(=O)CCNC(=O)c1ccccc1F)c1cc(C)ccn1` (stereo not given): -0.798%; for `CCCN(Cc1ccc(C(=O)NCC2COCCO2)c(=O)[nH]1)C1CC1` (stereo not given): 50.6%.
As for `CN1CC2(CCCN(CCOCc3ccccc3)C2)OC1=O` (stereo not given), the cytotoxicity at 70.5 h is -3.02%.
In the case of `CC(C)[C@@H]1CN(C(=O)CCn2ccccc2=O)C[C@H]1NS(C)(=O)=O` it was -7.19%; in that of `COc1ncccc1-c1cc(C(N)=O)ccn1`, 19.5%.
In the case of `Cc1ccc2nc(C)cc(C(=O)N3C[C@H]4CCC[C@@]4(CO)C3)c2c1` it was -6.32%.
The same measure for `CN1CCC(Cc2nc(-c3cnccn3)n(Cc3ccccc3)n2)CC1`: -4.63%.
On to `Cc1ncccc1Oc1ncnc(N2CCCC(O)(CO)CC2)c1C` (stereo not given), for which the cytotoxicity at 70.5 h is -16.4%.
In the case of `O=C(c1ccc[nH]1)N1CCc2ccc(S(=O)(=O)N3CCOCC3)cc2C1` it was 3.25%.
The same measure for `COC(=O)[C@@H]1CCCN1C(=O)c1cn(C/C=C/c2ccccc2)nn1`: 24.7%; for `O=C(c1cccc(Cl)c1)N1CC[C@@H](N2CCC(O)CC2)[C@H](O)C1`: 16%; for `Cc1cc(N2CCC3(CCCN(CCO)C3=O)C2)nc(C)c1C#N` (stereo not given): -18.8%.
In the case of `Cc1cc(C(=O)N2CCCC(Cn3cc(C4CC4)nn3)C2)nc(C)n1` (stereo not given) it was -13.2%; in that of `c1ccc(CCCN2CCN(CCn3cncn3)CC2)cc1`, -3.65%.
As to `CN(CC1=CCCN(Cc2cccc(C#N)c2)C1)C(=O)c1ccco1`, the cytotoxicity at 70.5 h is -12.2%.
The same measure for `Cc1noc(C)c1CN(C)C(=O)CN1CC(c2ccccc2)CC1=O` (stereo not given): -6.3%; for `Cc1cc(Cl)ccc1C(=O)N[C@H]1CN(S(C)(=O)=O)C[C@@H]1C1CC1`: -0.333%.
The same measure for `CCOCc1nc(-c2ccc(F)cc2Cl)n(C2CCN(C)CC2)n1`: -17.9%.
The same measure for `CCCN1CCCn2nc(CNC(=O)CCOC)cc2C1`: -4.33%.
For the compound `COCC(NC1CSCCSC1)c1ccnn1C` (stereo not given), the cytotoxicity at 70.5 h was -13.2%.
The same measure for `CCc1cc(NCCNC(C)=O)nc(N2CCCC2)n1`: 23.3%.
In the case of `CCCn1cnnc1CNC(=O)C1COc2cc(OC)ccc2C1` (stereo not given) it was 18.3%.
The same measure for `CN(C)CCn1ccnc1C1CCCN(c2ncc(Cl)cc2F)C1` (stereo not given): -3.65%.
With `Cc1cc(C(F)(F)F)nc(CCNC(C)Cn2cncn2)n1` (stereo not given), the cytotoxicity at 70.5 h is -11.4%.
As to `CCn1cc(CN2CCC(CN3CCCCC3)CC2)cc1C#N`, the cytotoxicity at 70.5 h is 4.33%.
In the case of `CN1CCN(CCc2ncnn2-c2ccc3c(c2)OCO3)CC1` it was 22%.
In the case of `Cc1nc[nH]c1C(=O)N1CCC2(CC1)CN(CCN(C)C)C(=O)O2` it was -6.22%.
Turning to `Cc1nccn1-c1ccc(NC(=O)C2CCCN2Cc2ccoc2)cc1` (stereo not given), the cytotoxicity at 70.5 h was -6.93%.
The same measure for `Cc1nc2c(C)cccc2cc1C(=O)N1CCC2(CCN(C)CC2)C1`: 3.12%; for `CCc1cnc(C)nc1NC(C)C(=O)Nc1cc(F)ccc1C` (stereo not given): 22.4%; for `O=C(CSCC1CC1)N1CCCC2(CCC(=O)N(CC3CC3)C2)C1` (stereo not given): -25.9%.
The same measure for `Cc1nn2cc(CCNC(=O)c3cc(C(C)C)no3)nc2s1`: 12.6%; for `CC(C)N(Cc1c[nH]nc1-c1ccc2c(c1)OCO2)Cc1nccn1C`: -4.64%.
The same measure for `Cc1cc(N2CCC3(CCCN(CCO)C3=O)C2)nc2ccccc12` (stereo not given): -26.3%.
Turning to `Cc1cc(CN2CCC=C(CN(C)C(=O)c3ccco3)C2)no1`, the cytotoxicity at 70.5 h is -7.11%.
Consider `O=C(Cc1ccsc1)N1CCN(CCOc2ccccc2)CC1`, for which the cytotoxicity at 70.5 h is -5.67%.
In the case of `CCc1ccc(CN2CCN(c3cccc(OC)c3)C(=O)C2)nc1` it was -8.23%.
Regarding `CCN(CC)C(=O)Cn1cc(C(=O)NCCc2nc(C)c(C)s2)nn1`, the cytotoxicity at 70.5 h was -2.44%.
In the case of `CN1CCN([C@H]2CCN(C(=O)c3nn(C)cc3Cl)C[C@H]2CCCO)CC1` it was -10.4%; in that of `COC(=O)C1C=CCN1C(=O)c1cc(COc2ccccc2)[nH]n1` (stereo not given), -5.33%.
The same measure for `CCOC(=O)N1CCC2(CC1)N=C(CCC(C)C)NC2=O`: -1.58%; for `CC(C)n1cnnc1CN(C)C1CCCNC1` (stereo not given): -10.1%; for `Cc1ccsc1C(Cn1ccnc1-c1ccccc1C(=O)O)N(C)C` (stereo not given): 19.1%.
The same measure for `OCCC1CN(c2nc(-c3cccnc3)nc3c2CCNCC3)CCO1` (stereo not given): -1.49%.
With `Cc1ccc2nc(CN3CCN(C4CCCCC4)C(=O)C3)cc(O)c2c1`, the cytotoxicity at 70.5 h is -0.969%.
In the case of `CC(C)c1nccc(-c2nccn2CCN(C)S(C)(=O)=O)n1` it was 19%; in that of `Cc1nc(C(C)C)sc1C(=O)N1CCN(C2CN3CCC2CC3)CC1` (stereo not given), -6.54%; in that of `CNC(=O)c1cn2cc(-c3ccccc3Cl)n(CC3CC3)c(=O)c2n1`, 15.9%.
On to `Cc1ccsc1CN(C)c1cc(N2CCOCC2)ncn1`, for which the cytotoxicity at 70.5 h is -2.06%.
In the case of `Cc1cc(N2CCC3(CCC(=O)N(CC4CC4)C3)CC2)ncn1` it was -7.85%; in that of `CC(C)c1cc(C(=O)N2CCNCC2C(=O)NCc2ccncc2)on1` (stereo not given), -2.19%.
As for `CN1CCC(N2CCC(c3ccccc3C(=O)O)C2)CC1` (stereo not given), the cytotoxicity at 70.5 h is -0.525%.
In the case of `CCN1CCCC(C)(C(=O)NCc2nccn2Cc2ccccc2)C1` (stereo not given) it was 0.597%; in that of `O=C(Nc1nc(-c2ccccc2)ns1)N1CCN(C(=O)C2CC2)CC1`, -0.566%; in that of `c1cc(CO[C@@H]2CN(Cc3ccoc3)[C@@H]3CCCO[C@@H]32)ccn1`, -16%.
